Measurements as given in US7230131B2, “Carnitine-magnesium hydroxycitrate” (Lonza AG, priority 2000, dated 2007).
Like-named read-outs stand apart in the source and are kept apart here.

What was measured:
citrate lyase = biological target: T1, citrate lyase (Homo sapiens, UniProt P53396); conditions: cited from earlier work
T1 sequence (P53396 1-1101): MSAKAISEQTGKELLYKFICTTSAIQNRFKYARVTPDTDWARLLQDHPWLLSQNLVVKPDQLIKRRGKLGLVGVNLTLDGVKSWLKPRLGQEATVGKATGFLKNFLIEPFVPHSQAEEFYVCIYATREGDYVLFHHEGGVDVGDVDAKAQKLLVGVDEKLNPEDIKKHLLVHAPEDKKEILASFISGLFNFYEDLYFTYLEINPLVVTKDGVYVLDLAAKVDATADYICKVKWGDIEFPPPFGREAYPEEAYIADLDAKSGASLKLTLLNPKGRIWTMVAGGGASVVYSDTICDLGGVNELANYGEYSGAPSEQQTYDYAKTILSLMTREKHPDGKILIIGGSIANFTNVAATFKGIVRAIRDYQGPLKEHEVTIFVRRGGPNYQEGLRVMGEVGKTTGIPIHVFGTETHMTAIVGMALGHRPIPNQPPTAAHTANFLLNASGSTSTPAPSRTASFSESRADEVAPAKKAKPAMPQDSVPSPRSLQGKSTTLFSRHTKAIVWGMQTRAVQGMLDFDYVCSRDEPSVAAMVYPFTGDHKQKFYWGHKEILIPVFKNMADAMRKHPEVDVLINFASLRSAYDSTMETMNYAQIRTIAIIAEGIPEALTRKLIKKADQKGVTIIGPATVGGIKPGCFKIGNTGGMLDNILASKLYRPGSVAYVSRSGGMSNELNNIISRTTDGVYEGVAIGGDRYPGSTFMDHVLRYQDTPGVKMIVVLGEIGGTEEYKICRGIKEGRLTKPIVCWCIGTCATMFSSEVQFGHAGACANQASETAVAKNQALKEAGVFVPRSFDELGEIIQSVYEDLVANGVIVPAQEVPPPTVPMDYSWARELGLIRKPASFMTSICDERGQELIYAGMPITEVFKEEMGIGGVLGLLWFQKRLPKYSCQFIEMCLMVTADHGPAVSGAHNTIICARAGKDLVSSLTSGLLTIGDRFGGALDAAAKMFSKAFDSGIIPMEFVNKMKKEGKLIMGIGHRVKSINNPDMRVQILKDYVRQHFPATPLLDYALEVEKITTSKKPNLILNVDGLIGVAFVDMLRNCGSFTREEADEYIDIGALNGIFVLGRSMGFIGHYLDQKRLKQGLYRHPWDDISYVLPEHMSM

[1] = Hygroscopicity test: gravimetric moisture uptake on storage at 56% relative humidity, 25° C.; assay type: physicochemical; conditions: for moisture uptake: previously dried to constant weight; for weight gain (moisture uptake from the air): 25° C., granulated <0.8 mm, previously dried over phosphorus pentoxide, based on total sample weight, Citrate
Source text: In a preferred embodiment, L-carnitine, magnesium hydroxide and citric acid are mixed in stoichiometric amounts, i.e. in a molar ratio of approximately 1:1:1. The types of these substances are preferably sufficiently pure, i.e. approved for the manufacture of food products or the preparation of pharmaceuticals, as are described, for example, in the European Pharmacopoeia. Anhydrous types are expediently used. To avoid an unwanted salt loading, the pure L-carnitine is preferably added to the mixture as neutral […] salt. Compared with previous methods of preparation, the hygroscopicity of the complex salt L-carnitine-magnesium citrate prepared in this way is reduced further. For example, the moisture uptake, determined by gravimetry in the way familiar to the skilled worker, of solid carnitine-Mg citrate prepared by the method of the invention and previously dried to constant weight under oil-pump vacuum or over phosphorus pentoxide is not more than 7% by weight after 48 h at 56% relative humidity (rH). This figure is not exceeded even after storage for 330 h. Based on the amount of carnitine or carnitine derivative present in the mixture, referred to within the scope of the invention as carnitine content based on free base, this corresponds to a moisture uptake of not more than 40% by weight. It is preferred for at least 80% of the carnitine-Mg citrate, based on the carnitine content in the mixture, to be in the form of complex salt in the mixture of the invention.
The product mixtures from example 1 and 2 granulated to a particle size of <0.8 mm using a FREEWIT screening granulator are stored at a relative humidity of 56% at 25° C. under constant test conditions for the stated times. The sample was previously dried to constant weight over phosphorus pentoxide. The moisture uptake from the air is determined by gravimetry. The weight gain is stated in percent based on the total weight of the sample.

[2] = relative humidity 56%, storage for 1 week; cited from earlier work
[3] = Weight gain of previously dried mixture under standard conditions; assay type: physicochemical; conditions: after 24 h under standard conditions
Description: The weight gain of the mixture of the invention which had previously been dried was, after 24 h under standard conditions, 0.82% by weight. At a relative humidity of 56%, the water uptake of the mixture determined by gravimetry was ≦10% by weight after 30 h, corresponding to about 30% by weight based on the carnitine content of the mixture.

[4] = Storage stability in relation to rearrangement of HCA to the lactone, standard test conditions; assay type: physicochemical; conditions: compared with known HCA salts; standard test conditions customary in the pharmaceutical sector
Source text: The present invention further relates to carnitine-magnesium hydroxycitrate. This is a salt of low hygroscopicity and can be prepared by the present method through mixing magnesium hydroxide, hydroxycitric acid and carnitine or alkanoyl carnitine in the molar ratio 1:1:1. It is a neutral salt in the stoichiometric composition, in relation to the charge distribution and the ionizable functional groups. […] This involves a synergistic effect of the mixture in the form of a complex salt. Without wishing to be bound to the theory, it is possible that this effect is brought about by a better bioavailability of the complex salt. HCA is prone to spontaneous lactonization in aqueous solution and in the gastrointestinal tract. The complexation with Mg before preparation of a solution might have a stabilizing effect in relation to the unwanted rearrangement of the lactone and thus bring about much greater activity in cooperation with carnitine. […] It is also possible that a previously unrecognized stimulating effect in particular of magnesium, in the sense of that stated above concerning the mechanism of action of carnitine and hydroxycitrate, is involved. Allosterically regulated enzymes are often regulated by various factors such as, for example, also Mg cations. Magnesium is moreover an important cofactor for various enzymes or constituent of the holo enzyme. […]

[5] = storage time 4 h, 56% relative humidity
[6] = storage time 8 h, 56% relative humidity
[7] = storage time 24 h, 56% relative humidity
[8] = storage time 36 h, 56% relative humidity
[9] = storage time 48 h, 56% relative humidity
[10] = storage time 336 h, 56% relative humidity

| Compound | weight gain (moisture uptake from the air) [1, 5] [% by weight] | weight gain (moisture uptake from the air) [1, 6] [% by weight] | weight gain (moisture uptake from the air) [1, 7] [% by weight] | weight gain (moisture uptake from the air) [1, 8] [% by weight] | weight gain (moisture uptake from the air) [1, 9] [% by weight] | weight gain (moisture uptake from the air) [1, 10] [% by weight] | also measured |
| --- | --- | --- | --- | --- | --- | --- | --- |
| O=C(O)CC(O)(C(=O)O)C(O)C(=O)O (stereo not shown) [HCA, Hydroxycitric acid] |  |  |  |  |  |  | affinity of the enzyme relative to natural substrate citric acid (citrate lyase; fold higher than for citric acid): more than 100 times |
| C[N+](C)(C)C[C@H](O)CC(=O)[O-].O=C([O-])CC(O)(CC(=O)[O-])C(=O)[O-].O=C([O-])CC(O)(CC(=O)[O-])C(=O)[O-].[Mg+2].[Mg+2].[Mg+2] [carnitine-Mg citrate, L-carnitine-magnesium citrate] |  |  |  |  |  |  | moisture uptake based on carnitine content (free base) ([1]; 56% relative humidity, based on amount of carnitine in the mixture): not more than 40 % by weight; moisture uptake ([1]; after 48 h at 56% relative humidity): not more than 7 % by weight; moisture uptake ([1]; after storage for 330 h at 56% relative humidity): not more than 7 % by weight |
| C[N+](C)(C)C[C@H](O)CC(=O)[O-].O=C([O-])CC(O)(CC(=O)[O-])C(=O)[O-].O=C([O-])CC(O)(CC(=O)[O-])C(=O)[O-].[Mg+2].[Mg+2].[Mg+2] [example 1, L-Carnitine-Magnesium Citrate] | 2.0 | 2.2 | 4.6 | 4.4 | 5.2 | 5.1 |  |
| C[N+](C)(C)C[C@H](O)CC(=O)[O-].O=C([O-])CC(O)(CC(=O)[O-])C(=O)[O-].O=C([O-])CC(O)(CC(=O)[O-])C(=O)[O-].[Mg+2].[Mg+2].[Mg+2] [example 2, L-Carnitine-Magnesium Citrate] | 2.7 | 3.0 | 5.4 | 5.5 | 6.4 | 6.5 |  |
| O=C1C[C@@](O)(C(=O)O)[C@@H](C(=O)O)O1 [lactone derivative] |  |  |  |  |  |  | affinity of the enzyme compared with HCA (citrate lyase; by comparison with HCA): clear lower affinity |
| C[N+](C)(C)C[C@H](O)CC(=O)[O-].O=C([O-])CC(O)(CC(=O)[O-])C(=O)[O-].O=C([O-])CC(O)(CC(=O)[O-])C(=O)[O-].[Mg+2].[Mg+2].[Mg+2] [reference, L-carnitine-magnesium citrate, reference compound] | 5.1 | 9.1 | 18.1 | 17.6 | 20.4 | 15.6 | water uptake [2]: 21 % by weight |
| L-Carnitine-Magnesium (−)-Hydroxycitrate [Example 4] |  |  |  |  |  |  | water uptake based on the carnitine content of the mixture ([1]; after 30 h at relative humidity 56%): about 30 % by weight; water uptake ([1]; after 30 h at relative humidity 56%, gravimetry): ≤ 10 % by weight; weight gain [3]: 0.82 % by weight; storage stability in relation to rearrangement of HCA to the lactone [4]: improved storage stability |
